Measured values: patent US20100035996A1, “GLUCOSE METABOLISM STIMULATING AGENT” (Shionogi & Co Ltd, priority 2006, published 2010)

What was measured:
Format in all cases: in vivo
male C57BL/6J-ob/ob mice [1] = experiment: Glucose tolerance test in obesity model mice, administration for 1 week; conditions: 100 mg/kg orally twice a day for a week
Procedure: (§1) The following Examples 1 to 3 were carried out in an obesity model mouse, male C57BL/6J-ob/ob mice (12-17 week old, 40-60 g) to study the effect of Compound (a) on glucose metabolism in mice.
Hydroxypropylmethyl cellulose solution (0.5% w/v, Shin-Etsu Chemical Co., Ltd) or Compound (b) suspended in the solution were orally administered at 100 mg/kg twice a day (8:00-10:00, 16:30-18:00) for a week. Food was removed in the morning (8:00-9:00) of the last day of administration. Mice were kept under fasting until the end of glucose tolerance test. In this period, the mice were allowed free access to water. The next day, glucose tolerance test was carried out in the afternoon (13:00-16:00) and then AUC was calculated as described in Example 1 (FIG. 4).

male C57BL/6J-ob/ob mice [2] = experiment: Glucose tolerance test in obesity model mice, short-term administration; conditions: 100 mg/kg oral gavage
Procedure: as §1
Compound (a) was administered to mice for short term and then glucose tolerance test was performed. In the morning (8:00-10:00) of the previous day of the test, hydroxypropylmethyl cellulose solution (0.5% w/v, Shin-Etsu Chemical Co., Ltd) or Compound (a) at 100 mg/kg suspended in the solution was administered by oral gavage. Food was removed just after the administration. Mice were kept under fasting until the end of glucose tolerance test. In this period, the mice were allowed free access to water. The oral administration was also performed in the evening of the previous day of the test (17:00-18:00) and in the morning of the day of the test (8:00-9:00). Glucose tolerance test was carried out in the afternoon (13:00-16:00), and AUC was calculated as described in Example 1 (FIG. 3).

male C57BL/6J-ob/ob mice [3] = experiment: Glucose tolerance test in obesity model mice, administration for 4 weeks; conditions: for AUC of plasma glucose levels in glucose tolerance test: oral glucose 2 g/kg, 0-120 min, control 29863
Procedure: as §1
(§2) Hydroxypropylmethyl cellulose solution (0.5% w/v, Shin-Etsu Chemical Co., Ltd) or Compound (a) or (b) suspended in the solution were orally administered at 25, 50 or 100 mg/kg twice a day (8:00-10:00, 16:30-18:00) for 4 weeks. Food was removed in the morning (8:00-9:00) of the last day of administration. Mice were kept under fasting until the end of glucose tolerance test. In this period, the mice were allowed free access to water. The next day, glucose tolerance test was carried out in the afternoon (13:00-16:00). Blood was collected from tail veins just before and at 15, 30, 60 and 120 minutes after oral administration of glucose (2 g/kg) to examine plasma glucose levels. AUC (area under the curve) was calculated by the trapezoidal method from the graphs made with obtained values (FIG. 1). AUCs in mice treated with Compound (a) at 25 mg/kg, 50 mg/kg and 100 mg/kg were 25610 mg·min/dL, 20315 mg·min/dL and 15848 mg·min/dL, respectively. AUC in control mice (dosed with 0.5% hydroxypropylmethyl cellulose solution) was 29863 mg·min/dL.

male C57BL/6J-ob/ob mice [4] = experiment: Body weight change during the 4-week dosing period; conditions: 25, 50 or 100 mg/kg orally twice a day for 4 weeks (FIG. 2)
Procedure: as §1, §2

[5] = 100 mg/kg orally twice a day for 4 weeks

Structure (SMILES) | AUC compared to control mice (male C57BL/6J-ob/ob mice [1]) | AUC of plasma glucose levels in glucose tolerance test (male C57BL/6J-ob/ob mice [1]; control 22532) | AUC of plasma glucose levels in glucose tolerance test (male C57BL/6J-ob/ob mice [2]; three doses (morning and evening of previous day, morning of test day), control 15033) | AUC compared to control mice (male C57BL/6J-ob/ob mice [2]; three doses, short term) | AUC of plasma glucose levels in glucose tolerance test (male C57BL/6J-ob/ob mice [3]; 25 mg/kg orally twice a day for 4 weeks) | AUC of plasma glucose levels in glucose tolerance test (male C57BL/6J-ob/ob mice [3]; 50 mg/kg orally twice a day for 4 weeks) | AUC compared to control mice (male C57BL/6J-ob/ob mice [3]; [5]) | AUC of plasma glucose levels in glucose tolerance test (male C57BL/6J-ob/ob mice [3]; [5]) | AUC change across doses (male C57BL/6J-ob/ob mice [3]; 25, 50, 100 mg/kg orally twice a day for 4 weeks) | Change in body weight during the dosing period (male C57BL/6J-ob/ob mice [4])
CCS(=O)(=O)N[C@H]1CC[C@H](C(=O)Nc2ccc(N3C[C@@H](C)O[C@@H](C)C3)cc2)CC1 [Compound (b)] | statistically significant decrease | 15546 mg·min/dL | – | – | – | – | – | – | – | –
CC(C)(C)S(=O)(=O)N[C@H]1CC[C@H](C(=O)Nc2ccc(C(F)(F)F)cn2)CC1 [Compound (a)] | – | – | 22423 mg·min/dL | statistically significant decrease | 25610 mg·min/dL | 20315 mg·min/dL | statistically significant decrease | 15848 mg·min/dL | decreased with dose-dependent manner | no statistically significant change
